Broadly, the logP is the decadic logarithm of the partition coefficient of the neutral form, usually between octanol and water. A lower logP goes with a more hydrophilic compound.

From the OPERA property sets (Mansouri et al. 2018) come the findings set out here.

For `CCSC(=O)N1CCCCCC1`, the logP turned out to be 3.21.

Molecule `CCN(CC)CCOC(=O)c1ccc(N)cc1Cl` had a logP of 2.86. To `C1CNCCN1` belongs -1.5; to `NC(=O)CCCCc1ccncc1`, 0.42.

`O=[N+]([O-])c1ccc2cccnc2c1` registered a logP of 1.82. Then `O=C(N/N=C/c1cc[nH]c1)Nc1ccccc1`, with 2.96; and `O=C(O)c1cccc(F)c1`, with 2.15. Consider `NC(=O)c1cccc(F)c1`, for which the logP turned out to be 0.91. Then `C=CCOc1ccccc1C(=C)n1ccnc1`, with 2.79; and `O=C(C=Cc1ccccc1)Nc1ccccc1`, with 3.61. Then `Nc1cccc(O)c1`, with 0.21; and `CS(=O)(=O)CC#N`, with -1.42. To `O=C(O)C(c1ccccc1)c1ccccc1` belongs 3.09.

On to `C=CC=O`, for which the log partition coefficient (logP) is -0.01. Then `O=C(O)Cc1ccccc1Nc1ccccc1`, with 3.49; and `CC(C)CN`, with 0.73; and `CN(C)c1ccc(S(N)(=O)=O)cc1`, with 0.76. As for `Brc1c(Br)c(Br)c(Br)c(Br)c1Br`, the logP turned out to be 6.07. To `CN(C)N=Nc1cccc(C(F)(F)F)c1` belongs 3.78; to `NC(=O)COc1ccccc1`, 0.76. With `Cc1ccc(OC(=O)N(C)C)cc1`, the log partition coefficient (logP) is 2.03.

With `Cn1cc[nH]c1=S`, the logP was -0.34. Then `CC(C)(C)C(=O)c1ccccc1`, with 3. To `CCCCCNc1nc(NC)nc(SC(F)F)n1` belongs 4.42; to `BrCCc1ccccc1`, 3.09. Then `CCC(C(N)=O)(C(N)=O)c1ccccc1`, with 0.13. `C=CCOc1ccccc1`: the lipophilicity (logP) is 2.94. To `COC(=O)CCC(NC(=O)c1ccc(N(C)Cc2cnc3nc(N)nc(N)c3n2)cc1)C(=O)OC` (stereo not drawn) belongs 0.54; to `Fc1cc(F)cc(Cn2cc[nH]c2=S)c1`, 1.98; to `COc1cccc(C(=O)O)c1`, 2.02. The molecule `CN(C)C#N` had a log partition coefficient (logP) of -0.15. Then `CCC1(CCC(C)C)C(=O)NC(=S)NC1=O`, with 2.98. Then `CC(=O)N[C@@H](Cc1ccccc1)C(=O)N[C@@H](CCC(N)=O)C(N)=O`, with -1.03. For `COP(=S)(OC)SCC(=O)N(C)C=O`, the logP worked out at 1.48. Then `CCCNC(C)C(=O)Nc1ccccc1C` (stereo not drawn), with 2.11.

`CCSCC`: the logP turned out to be 1.95. Then `O=C(O)c1ccc2cccccc1-2`, with 2.88; and `Cc1cccc(S(I)=C(N(C)C)N(C)C)c1` (stereo not drawn), with -0.14.

`CCCCCCCI` yielded a logP of 4.7. On to `O=CNc1ccccc1`, for which the logP amounted to 1.15. Then `FC(F)(F)c1nc2c(Cl)c(Cl)ccc2[nH]1`, with 3.49; and `Nc1cccc(CO)c1`, with -0.05; and `CCCCCC1(CC)C(=O)NC(=O)NC1=O`, with 2.24. In the case of `c1ccc2c(c1)ccc1c3ccc4ccccc4c3[nH]c21`, the lipophilicity (logP) is 6.4.

The molecule `NNC(=O)c1ccncc1` returned a logP of -0.7. To `O=C(O)c1cc(O)c(O)c(O)c1` belongs 0.7; to `OCc1ccc(Cl)cc1`, 1.96. To `CC(C)(C)C` belongs 3.11; to `OCCCCc1cccnc1`, 0.92. To `CC(C)(C)C(=O)NC(CO)C(O)c1ccc([N+](=O)[O-])cc1` (stereo not drawn) belongs 1.33; to `CCOc1ccc(CC(=O)O)cc1`, 1.95; to `COC(=O)c1ccccc1OC(C)=O`, 1.46. `O=C(O)CONC(=O)c1ccccc1` registered a log partition coefficient (logP) of -0.27.

Consider `NC(=O)c1ccc(Br)cc1`, for which the logP amounted to 1.76. Then `O=C(O)c1ccccc1[N+](=O)[O-]`, with 1.46. On to `O=C(O)COc1ccc(Cl)c(Cl)c1`, for which the logP amounted to 2.81. Then `CNC(=O)Oc1ccc(C#N)cc1`, with 0.95. To `CN1C(=O)CN=C(c2ccc(Cl)cc2)c2cc(F)ccc21` belongs 3.1; to `Nc1ccccc1`, 0.9. Then `O=[N+]([O-])c1nccn1C1OC(CI)C(O)C1O` (stereo not drawn), with 0.32. Take `COc1ccc(Cl)cc1`: the logP was determined as 2.78. `CCN(CC)CCNC(=O)c1cc(S(=O)(=O)CC)c(N)cc1OC` returned a logP of 1.7.

The molecule `CC(=O)OCCBr` came in with a log partition coefficient (logP) of 1.11.

`c1ccc(-c2cccc(-c3ccccc3)n2)cc1` yielded a logP of 4.82. Then `COc1cc(CCN)cc(OC)c1Br`, with 2.03. `C=COCC` had a logP of 1.04. Then `CCCC(C)O` (stereo not drawn), with 1.19; and `CC(=O)Cc1ccccc1`, with 1.44; and `O=[N+]([O-])c1cccc(F)c1`, with 1.9.

The molecule `O=C(O)c1ccc([N+](=O)[O-])cc1` displayed a logP of 1.89. Take `CC(=O)NC1=CC(=O)c2ccccc2C1=O`: the lipophilicity (logP) amounted to 1.29. Then `O=C(NO)Nc1ccccc1`, with 0.41.

`Cc1ccc(C(C)C)cc1` had a logP of 4.1. Regarding `Cn1cccc1`, the logP was found to be 1.21. Then `CC(=O)Nc1ccc(S(=O)(=O)F)cc1`, with 2.17. In the case of `NCC(F)(F)F`, the logP was determined as 0.24. Then `COc1cc(O)cc(OC)c1`, with 1.64. Then `O=C(O)COc1ccc2c(c1)CCCC2`, with 2.67; and `O=C(Cn1c(=O)sc2ccc(Cl)cc21)N1CCNCC1`, with 1.35. Then `CC(=O)c1cn(C)c2ccccc12`, with 1.95; and `CC(C)CCOc1cc(N)ccc1C(=O)O`, with 2.3; and `NCCCCCc1ccccn1`, with 1.32. Turning to `Nc1ccnc2ccccc12`, the logP is 1.63. Then `O=NN(CCCl)C(=O)NC1CCCCCCCCCCC1`, with 5.64; and `c1ccc(C2CO2)cc1` (stereo not drawn), with 1.61.

In turn, `C#C` had a logP of 0.37. In turn, `CN(C)CCC(c1ccc(Cl)cc1)c1ccccn1` (stereo not drawn) registered a lipophilicity (logP) of 3.38. To `O=C(O)COc1ccc(Br)cc1` belongs 2.45; to `CCC#N`, 0.16; to `CC(C)N(CCC(C(N)=O)c1ccc(-c2ccccc2)cc1)C(C)C` (stereo not drawn), 3.66. To `NC1=CC(=O)c2ccccc2C1=O` belongs 1.77.

Turning to `CON(C)C(=O)Nc1ccccc1`, the log partition coefficient (logP) stood at 1.29.

Molecule `FN(F)C(c1ccccc1)(c1ccccc1)c1ccccc1` yielded a logP of 3.73.

Consider `NS(=O)(=O)c1cccnc1`, for which the logP was -0.49. To `Cc1ccc(C)o1` belongs 2.24; to `CCCC(=O)OCC(O)CO` (stereo not drawn), -0.17. Then `CCCCNCCC`, with 2.12; and `O=Cc1ccccc1Cl`, with 2.33. Then `CCC(=O)C(CC(C)N(C)C)(c1ccccc1)c1ccccc1` (stereo not drawn), with 3.93. As for `O=CNc1ccc2[nH]ccc2c1`, the logP amounted to 1.07. In turn, `CS(=O)(=O)c1ccc(C(=O)O)cc1` yielded a logP of 0.67.

In turn, `COc1cc2c(cc1OC)[C@@]13CCN4CC5=CCO[C@H]6CC(=O)N2[C@H]1[C@H]6[C@H]5C[C@H]43` gave a lipophilicity (logP) of 0.98. Then `c1cncc(CN2CCOCC2)c1`, with 0.04. To `c1ccc(C23CCN(CC2)CC3)cc1` belongs 2.54. Then `COc1cc2c(c3c1c(=O)c1ccccc1n3C)C=CC(C)(C)O2`, with 3.67; and `CCOc1cccc(S(I)=C(N(C)C)N(C)C)c1` (stereo not drawn), with -0.1. For the molecule `C[N+](C)(C)c1ccccc1.[I-]`, the logP is -2.74. To `CC1=NN(CCOc2ccc3ccccc3c2)C(=O)C1` belongs 2.74; to `CCC1(CC)C(=O)NC(=O)N(C(C)C)C1=O`, 2.36; to `O=C(COc1ccccc1)Nc1ccccc1`, 2.73. Then `CN(N=O)C(=O)NC1C(O)OC(CO)C(O)C1O` (stereo not drawn), with -1.45; and `CCOC(=O)C(=Cc1cccc(F)c1)C(C)=O`, with 2.46; and `CCCN(CC)CCC`, with 2.68. To `Cn1c(N)nc2cc(C#N)ccc21` belongs 1.11; to `CCOC(=O)C(=Cc1ccc(Cl)c(Cl)c1)C(C)=O`, 3.92; to `CCCNc1nc(NCC)nc(SC(F)F)n1`, 3.8. `COc1ccccc1CO`: the lipophilicity (logP) was determined as 1.13.

With `CCOC(=O)CN(C(=O)CCl)c1c(CC)cccc1CC`, the logP turned out to be 3.6. To `COc1cc(N)c(Cl)cc1C(=O)NC1CCN(Cc2ccccc2)CC1` belongs 3.58; to `CC(=O)CCC1CC1`, 1.5; to `COC(=O)c1c[nH]c(C)c1`, 1.96.

`CC1OC(OC2CCC3(CO)C4CCC5(C)C(C6=CC(=O)OC6)CCC5(O)C4CCC3(O)C2)C(O)C(O)C1O` (stereo not drawn) registered a logP of -0.62.

Consider `CCN(CCO)c1ccccc1`, for which the logP is 2.1. Then `CCCn1cnc([N+](=O)[O-])n1`, with 0.3. Then `CCCCn1nnc2ccccc21`, with 2.57. Then `O=NN(Cc1ccccc1)c1ccccc1`, with 3.38. The molecule `CCOCOCC` came in with a lipophilicity (logP) of 0.84.

Consider `Nc1ccc(C(=O)Oc2ccccc2Cl)c(O)c1`, for which the lipophilicity (logP) amounted to 3.72. Then `C=C1C(=O)OC2C1CCC(C)C1(O)C=CC(=O)C21C` (stereo not drawn), with 0.77.

As for `CC(=O)Nc1cccc(NC(C)=O)c1`, the logP stood at 0.5.

`CC(C)(C)c1ccccc1OCC(=O)O` returned a log partition coefficient (logP) of 3.33. Then `O=C(O)c1cc(Cl)cc(Cl)c1`, with 3; and `Nc1ccc(Cc2ccc(N)cc2)cc1`, with 1.59; and `O=C(Nc1ccccc1)N(Cc1ccc(Cl)cc1)C1CCCC1`, with 4.82. Consider `O=[N+]([O-])c1ccccc1C(F)(F)F`, for which the logP came out at 2.58.

Molecule `CCCCCCOC1OC(CO)C(O)C(O)C1O` (stereo not drawn) returned a logP of 0.16. To `O=C1CCCCN1` belongs -0.46. Then `COCC(c1c(O)c2ccccc2oc1=O)c1c(O)c2ccccc2oc1=O`, with 1.38. With `O=[N+]([O-])c1ccc(C=Cc2nccs2)o1`, the logP was determined as 1.97. Then `NNC(=O)c1ccc(Cl)cc1`, with 1.18; and `CCN(CC)CCNC(=O)c1cc(F)c(N)cc1OC`, with 2.28; and `N#Cc1ccc2cc[nH]c2c1`, with 2.38.

`CC(=O)OCc1ccc(Cl)cc1` had a logP of 2.59.
